The results in this text go back to patent US8999956B2, “N-[(het)arylalkyl)] pyrazole(thio)carboxamides and their heterosubstituted analogues” (Bayer Intellectual Property GmbH, priority 2010, dated 2015).

One series concerns Aspergillus parasiticus. Description: microbe, parasite or virus in culture. It counts as cell-based.
A short description of series [1]: log P by HPLC on reversed-phase column (EEC Directive 79/831 Annex V.A8). It counts as physicochemical. How it is done:
In table 1, the log P values were determined in accordance with EEC Directive 79/831 Annex V.A8 by HPLC (High Performance Liquid Chromatography) on a reversed-phase column (C18), using the method described below: Temperature: 40° C.; […]

The test system of series [2] is aflatoxines produced by Aspergillus parasiticus. The series can be described thus: microbe, parasite or virus in culture. It counts as cell-based.
The next series concerns Alternaria solani. Description: In vivo preventive test on Alternaria solani (tomato). To be noted: 500 ppm of active ingredient, evaluated 7 days after inoculation. On the procedure: Solvent: 49 parts by weight of N,N-dimethylformamide Emulsifier: 1 part by weight of Alkylarylpolyglycolether To produce a suitable preparation of active compound, 1 part by weight of active compound is mixed with the stated amounts of solvent and emulsifier, and the concentrate is diluted with water to the desired concentration. To test for preventive activity, young plants are sprayed with the preparation of active compound at the stated rate of application. One day after this treatment, the plants are inoculated with an aqueous spore suspension of Alternaria solani.

The test system of the next series is Pyrenophora teres. Description: In vivo preventive test on Pyrenophora teres (barley). To be noted: 500 ppm of active ingredient, evaluated 7-9 days after inoculation. How it is done: Solvent: 49 parts by weight of N,N-dimethylformamide Emulsifier: 1 part by weight of alkylaryl polyglycol ether To produce a suitable preparation of active compound, 1 part by weight of active compound is mixed with the stated amounts of solvent and emulsifier, and the concentrate is diluted with water to the desired concentration. To test for preventive activity, young plants are sprayed with the preparation of active compound at the stated rate of application. One day after this treatment, the plants are inoculated with an aqueous spore suspension of Pyrenophora teres.

Several values for one entry are separate records, joined by “and”; a condition that tells them apart may be missing. Equal entries are not always repeated. Where two headings read alike, the source gives them in different places.

Consider `CCC(CCc1sccc1C)NC(=O)c1c(C(F)F)nn(C)c1Cl` (stereo not drawn) [Example 78], for which the “% Inhibition of fungal growth at 50 μM” value in the series on Aspergillus parasiticus was found to be 65%. In series [1], this molecule had a logP of 3.48. The “% Inhibition of Aflatoxin at 50 μM” value in series [2] amounted to 83%.
In the same order, the values of `CSC1CCCCC1N(C(=O)c1c(C(F)F)nn(C)c1F)C1CC1` (stereo not drawn) [Example 351] are 100%, 3.50 and 100%.
The corresponding values for `Cn1nc(C(F)F)c(C(=O)N(C[Si](C)(C)Cc2cc(Cl)cc(Cl)c2)C2CC2)c1Cl` [Example 292] are 86%, 5.14 and 100%.
For the molecule `Cn1nc(C(F)F)c(C(=O)NC(C)(C)CCc2ccc(Cl)c(Cl)c2)c1F` [Example 134], in the series on Aspergillus parasiticus, the “% Inhibition of fungal growth at 50 μM” value is 79%. Also, the logP in series [1] was determined as 4.21. Besides, the “% Inhibition of Aflatoxin at 50 μM” value in series [2] is 100%.
Regarding `CN(C(=O)c1c(C(F)F)nn(C)c1F)C(CSCc1ccccc1)C1CC1` (stereo not drawn) [Example 225], the “% Inhibition of fungal growth at 50 μM” value in the series on Aspergillus parasiticus is listed as 85%. For the same molecule, the Efficacy with Alternaria solani worked out at 95%. The molecule also showed a logP in series [1] of 3.46. For the same molecule, the “% Inhibition of Aflatoxin at 50 μM” value in series [2] is given as 100%.
On to `CC1CCCC(Cc2cccc(Cl)c2)C1NC(=O)c1c(C(F)F)nn(C)c1F` (mixture of isomers) [Example 255], for which the “% Inhibition of fungal growth at 50 μM” value in the series on Aspergillus parasiticus worked out at 90%. Further, the logP in series [1] (mixture of two or more isomers, one value per isomer, HPLC reversed-phase C18, 40° C., 0.1% aqueous formic acid and acetonitrile) is 4.31 and 4.44 and 4.54. Also, the “% Inhibition of Aflatoxin at 50 μM” value in series [2] is 100%.
On to `CC(CCc1ccc(Cl)cc1Cl)NC(=O)c1c(C(F)F)nn(C)c1Cl` (stereo not drawn) [Example 185], for which the “% Inhibition of fungal growth at 50 μM” value with Aspergillus parasiticus is 89%. Also, the logP in series [1] turned out to be 3.99. The “% Inhibition of Aflatoxin at 50 μM” value in series [2] came to 100%.
With `Cn1nc(C(F)F)c(C(=O)NCCOc2c(Cl)cc(Cl)cc2Cl)c1F` [Example 202], the “% Inhibition of fungal growth at 50 μM” value in the series on Aspergillus parasiticus was 84%. The molecule further yielded an Efficacy in the series on Pyrenophora teres of 80%. This molecule also registered a logP in series [1] of 3.60. The “% Inhibition of Aflatoxin at 50 μM” value in series [2] was 100%.
In the same order, the values of `Cn1nc(C(F)F)c(C(=O)NCCOc2cc(Cl)cc(Cl)c2)c1F` [Example 117] are 81%, 78%, 3.35 and 99%.
Consider `CC(C)CC(C)C1CCCC1NC(=O)c1c(C(F)F)nn(C)c1F` (single isomer, unassigned) [Example 317], for which, in the series with Aspergillus parasiticus (50 µM), the “% Inhibition of fungal growth at 50 μM” value is on record as 90%. The same molecule gave a logP in series [1] of 4.22 isomer B. In addition, the “% Inhibition of Aflatoxin at 50 μM” value in series [2] worked out at 100%.
As to `CCC(CCc1sccc1C)NC(=O)c1c(C(F)F)nn(C)c1F` (stereo not drawn) [Example 79], the “% Inhibition of fungal growth at 50 μM” value in the series with Aspergillus parasiticus is 93%. Besides, the logP in series [1] came to 3.31. In addition, in series [2], the “% Inhibition of Aflatoxin at 50 μM” value is 100%.
Take `CC(CCc1cc(Cl)cc(Cl)c1)NC(=O)c1c(C(F)F)nn(C)c1F` (stereo not drawn) [Example 120]: in the series with Aspergillus parasiticus, the “% Inhibition of fungal growth at 50 μM” value is recorded as 100%. In series [1], this molecule came in with a logP of 3.83. Moreover, the “% Inhibition of Aflatoxin at 50 μM” value in series [2] amounted to 100%.
Take `Cn1nc(C(F)F)c(C(=O)NC(C)(C)CCc2cc(Cl)ccc2Cl)c1Cl` [Example 177]: the Efficacy in the series on Alternaria solani and in the series on Pyrenophora teres was 100% throughout. This molecule also displayed a logP in series [1] of 4.49.
As for `CN(c1ccc(Oc2ccccc2)cc1)C(CNC(=O)c1c(C(F)F)nn(C)c1F)C(F)(F)F` (stereo not drawn) [Example 33], the Efficacy in the series on Alternaria solani and with Pyrenophora teres was 95% throughout. In series [1], this molecule returned a logP of 4.16.
As to `Cc1ccsc1CCC(C)NC(=O)c1c(C(F)F)nn(C)c1Cl` (stereo not drawn) [Example 76], the “% Inhibition of fungal growth at 50 μM” value with Aspergillus parasiticus came to 83%. In addition, in series [1], the logP is listed as 3.17. The “% Inhibition of Aflatoxin at 50 μM” value in series [2] is reported as 100%.
`CC(CCc1ccccc1)NC(=O)c1c(C(F)F)nn(C)c1Cl` (stereo not drawn) [Example 11]: the results for the Efficacy with Alternaria solani and in the series with Pyrenophora teres were 95% and 100%, respectively. Also, the logP in series [1] is on record as 3.04.
In the case of `CN(CCCc1ccccc1)C(=O)c1c(C(F)F)nn(C)c1F` [Example 6], the figures for the Efficacy in the series with Alternaria solani and with Pyrenophora teres were 95% and 70%, respectively. In series [1], this molecule had a logP of 2.73.
Regarding `Cn1nc(C(F)F)c(C(=O)NCC(Sc2ccc(Cl)cc2)C(F)(F)F)c1F` (stereo not drawn) [Example 46], the Efficacy with Alternaria solani and with Pyrenophora teres was 100% in each case. Also, the logP in series [1] stood at 3.73.
Take `CSC1CCCCC1N(C(=O)c1c(C(F)F)nn(C)c1Cl)C1CC1` (stereo not drawn) [Example 352]: the “% Inhibition of fungal growth at 50 μM” value in the series on Aspergillus parasiticus is listed as 85%. Moreover, the logP in series [1] came to 3.73. In series [2], the “% Inhibition of Aflatoxin at 50 μM” value was 99%.
`Cn1nc(C(F)F)c(C(=O)N(CCOc2c(Cl)cc(Cl)cc2Cl)C2COC2)c1F` [Example 210]: the Efficacy with Alternaria solani amounted to 70%; in the series with Pyrenophora teres, 90%. In series [1], the logP was found to be 3.42.
The corresponding values for `Cn1nc(C(F)F)c(C(=O)NCC2CCCC(C(F)(F)F)C2)c1F` (stereo not drawn) [Example 379] are 95%, 100% and 2.96.
The corresponding values for `CC(CNC(=O)c1c(C(F)F)nn(C)c1Cl)Cc1ccc(Cl)c(Cl)c1` (racemic) [Example 127] are 90%, 100% and 3.87.
For `Cn1nc(C(F)F)c(C(=O)NC(C)(C)CCc2ccc(Cl)cc2Cl)c1Cl` [Example 195], the Efficacy in the series with Alternaria solani and in the series on Pyrenophora teres was 95% throughout. Moreover, the logP in series [1] was 4.61.
As to `CC(CCc1cc(Cl)cc(Cl)c1)NC(=O)c1c(C(F)F)nn(C)c1Cl` (stereo not drawn) [Example 119], in the series with Aspergillus parasiticus, the “% Inhibition of fungal growth at 50 μM” value is reported as 77%. The same molecule registered a logP in series [1] of 4.01. Besides, in series [2], the “% Inhibition of Aflatoxin at 50 μM” value was 95%.
In the case of `CCC(COc1cc(C)cc(C)n1)NC(=O)c1c(C(F)F)nn(C)c1Cl` (stereo not drawn) [Example 67], the Efficacy in the series on Alternaria solani is given as 70%; in the series with Pyrenophora teres it was 100%. The molecule also gave a logP in series [1] of 2.14.
In the case of `CC(C)C(CCc1ccc(Cl)cc1)NC(=O)c1c(C(F)F)nn(C)c1F` (stereo not drawn) [Example 63], the Efficacy with Alternaria solani and in the series on Pyrenophora teres was 100% in each case. The logP in series [1] worked out at 3.94.
Consider `CCN(C(=O)c1c(C(F)F)nn(C)c1F)C(C)COc1ccc(C)cc1` (stereo not drawn) [Example 38], for which the Efficacy with Alternaria solani and with Pyrenophora teres was 80% in each case. Moreover, in series [1], the logP stood at 3.27.
Regarding `Cn1nc(C(F)F)c(C(=O)NC2(C3CCCCC3)CC2)c1Cl` [Example 380], the Efficacy in the series with Alternaria solani is 95%; with Pyrenophora teres, 100%. This molecule also registered a logP in series [1] of 3.29.
In the case of `Cc1ccsc1CCC(C)NC(=O)c1c(C(F)F)nn(C)c1F` (stereo not drawn) [Example 77], in the series on Aspergillus parasiticus, the “% Inhibition of fungal growth at 50 μM” value is listed as 98%. Further, the logP in series [1] was found to be 3.02. Besides, the “% Inhibition of Aflatoxin at 50 μM” value in series [2] is given as 100%.
As for `CC(CNC(=O)c1c(C(F)F)nn(C)c1Cl)Cc1cc(Cl)cc(Cl)c1` (stereo not drawn) [Example 115], the values for the Efficacy in the series on Alternaria solani and in the series on Pyrenophora teres were 90% and 100%, respectively. In series [1], this molecule had a logP of 4.04.
The corresponding values for `CC(CCc1ccccc1)NC(=O)c1c(C(F)F)nn(C)c1F` (stereo not drawn) [Example 12] are 95%, 100% and 2.88.
